This test deals with Aurora B/INCENP (Homo sapiens, UniProt Q96GD4). In words: Determination of inhibition of AIK: Aurora B/INCENP Direct Fluorescence Polarization (IMAP) assay. The settings on record: 10 uM ATP, 0.8 nM Aurora B/INCENP, 45 min at room temperature; read-out: IC50 of Exemplified Compounds Against AIK B. Type of test: biochemical. How it is done:
Detection of the reaction product is performed by addition of Progressive IMAP binding reagent (Molecular Devices). Reaction product may be determined quantitatively by FP using an Analyst HT plate reader (Molecular Devices) with an excitation wavelength at 485 nm and emission at 530 nm and using a Fluorescein 505 dichroic mirror.
The assay reaction may be initiated as follows: 2 ul of (3×) 300 nM Fl-Peptide/30 uM ATP was added to each well of the plate, followed by the addition of 2 ul of (3×) inhibitor (2 fold serial dilutions for 11 data points for each inhibitor) containing 15% DMSO. Two microliters of (3×) 2.4 nM AuroraB/INCENP solution may be added to initiate the reaction (final enzyme concentration was 0.8 nM for Aurora B/INCENP). The reaction mixture may then be incubated at room temperature for 45 min, and quenched and developed by addition of 20 ul of 1 to 400 diluted Progressive IMAP binding reagent in 1× proprietary Progressive IMAP binding buffer A. Fluorescence polarization readings of the resulting reaction mixtures may be measured after a 60-minute incubation at room temperature.
IC50 values may be calculated by non-linear curve fitting of the compound concentrations and fluorescent polarization values to the standard IC50 equation.

Molecules are shown by their SMILES.

Aurora B/INCENP, sequence (Q96GD4 whole entry): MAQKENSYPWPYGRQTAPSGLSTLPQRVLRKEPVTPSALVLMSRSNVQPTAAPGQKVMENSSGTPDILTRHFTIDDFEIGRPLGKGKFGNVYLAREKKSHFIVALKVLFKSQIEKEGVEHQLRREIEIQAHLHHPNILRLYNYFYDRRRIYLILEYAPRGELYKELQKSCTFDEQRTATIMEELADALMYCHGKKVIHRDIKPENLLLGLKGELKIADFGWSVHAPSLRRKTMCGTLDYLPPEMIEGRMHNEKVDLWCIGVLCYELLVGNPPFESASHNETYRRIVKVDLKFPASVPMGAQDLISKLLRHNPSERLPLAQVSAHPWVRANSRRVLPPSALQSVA
Aurora B/INCENP, sequence (Q9NQS7 whole entry partner): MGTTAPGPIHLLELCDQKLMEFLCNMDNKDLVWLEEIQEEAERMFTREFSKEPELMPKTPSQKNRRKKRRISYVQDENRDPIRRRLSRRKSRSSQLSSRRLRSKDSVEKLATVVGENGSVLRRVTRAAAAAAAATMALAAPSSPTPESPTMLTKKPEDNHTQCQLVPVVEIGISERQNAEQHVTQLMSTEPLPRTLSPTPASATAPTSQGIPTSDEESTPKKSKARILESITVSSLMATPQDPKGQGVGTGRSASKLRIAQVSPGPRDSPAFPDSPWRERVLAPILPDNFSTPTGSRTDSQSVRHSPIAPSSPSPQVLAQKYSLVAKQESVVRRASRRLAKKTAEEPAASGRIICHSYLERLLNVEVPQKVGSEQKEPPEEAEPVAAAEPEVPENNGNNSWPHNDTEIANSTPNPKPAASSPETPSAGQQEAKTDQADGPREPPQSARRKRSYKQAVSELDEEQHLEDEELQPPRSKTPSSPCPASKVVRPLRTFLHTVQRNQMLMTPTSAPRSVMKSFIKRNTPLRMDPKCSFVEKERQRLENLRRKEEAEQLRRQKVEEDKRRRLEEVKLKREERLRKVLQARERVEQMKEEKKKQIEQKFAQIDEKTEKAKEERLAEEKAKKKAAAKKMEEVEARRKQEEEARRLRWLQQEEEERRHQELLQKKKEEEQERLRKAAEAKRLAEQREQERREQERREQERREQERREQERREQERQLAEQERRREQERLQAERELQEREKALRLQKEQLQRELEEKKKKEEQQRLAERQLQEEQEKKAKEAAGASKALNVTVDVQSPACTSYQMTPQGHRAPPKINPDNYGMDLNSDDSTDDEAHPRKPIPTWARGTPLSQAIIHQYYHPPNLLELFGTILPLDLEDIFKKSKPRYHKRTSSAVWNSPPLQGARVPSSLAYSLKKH

Regarding `c1ccc(-c2cccc3[nH]c4ncccc4c23)cc1` [Compound 5, 5-phenyl-9H-pyrido[2,3-b]indole], the IC50 is at least 0.011 µM. The figure for `CCS(=O)(=O)c1cccc(-c2ccc(C)c3[nH]c4ncc(C)cc4c23)c1` [Compound 18, 5-(3-(ethylsulfonyl)phenyl)-3,8-dimethyl-9H-pyrido[2,3-b]indole] is 0.006 to 0.01 µM. Regarding `CCS(=O)(=O)c1cccc(-c2cnc(NCCCN(C)C)c3[nH]c4ncc(C)cc4c23)c1` [Compound 41, N′-[5-(3-Ethanesulfonyl-phenyl)-3-methyl-9H-dipyrido[2,3-b;4′,3′-d]pyrrol-8-yl]-N,N-dimethyl-propane-1,3-diamine], the IC50 lay in the range of 0.006 to 0.01 µM. The figure for `CCOc1ncc(-c2cccc(S(=O)(=O)CC)c2)c2c1[nH]c1ncc(C)cc12` [Compound 51, 5-(3-Ethanesulfonyl-phenyl)-8-ethoxy-3-methyl-9H-dipyrido[2,3-b;4′,3′-d]pyrrole] is 0.006 to 0.01 µM. The figure for `CCS(=O)(=O)c1cccc(-c2cnc(OCCCN(C)C)c3[nH]c4ncc(C)cc4c23)c1` [Compound 52, {3-[5-(3-Ethanesulfonyl-phenyl)-3-methyl-9H-dipyrido[2,3-b;4′,3′-d]pyrrol-8-yloxy]-propyl}-dimethyl-amine] is 0.006 to 0.01 µM. With `CCS(=O)(=O)c1cccc(-c2cnc(OCC3CCN(C)CC3)c3[nH]c4ncc(C)cc4c23)c1` [Compound 54, 5-(3-Ethanesulfonyl-phenyl)-3-methyl-8-(1-methyl-piperidin-4-ylmethoxy)-9H-dipyrido[2,3-b;4′,3′-d]pyrrole], the IC50 is 0.006 to 0.01 µM. The figure for `CCS(=O)(=O)c1cccc(-c2cc(C(=O)NC3CCN(C)CC3)c(C)c3[nH]c4ncc(C)cc4c23)c1` [Compound 88, 5-(3-(ethylsulfonyl)phenyl)-3,8-dimethyl-N-(1-methylpiperidin-4-yl)-9H-pyrido[2,3-b]indole-7-carboxamide] is 0.006 to 0.01 µM. The figure for `CCS(=O)(=O)c1cccc(-c2cc(C(=O)NCCOC)c(C)c3[nH]c4ncc(C)cc4c23)c1` [Compound 90, N-(2-(methoxy)ethyl)-5-(3-(ethylsulfonyl)phenyl)-3,8-dimethyl-9H-pyrido[2,3-b]indole-7-carboxamide] is 0.006 to 0.01 µM; for `CCS(=O)(=O)c1cccc(-c2cc(C(=O)NCCCN3CCN(C)CC3)c(C)c3[nH]c4ncc(C)cc4c23)c1` [Compound 95, 5-(3-(ethylsulfonyl)phenyl)-3,8-dimethyl-N-(3-(4-methylpiperazin-1-yl)propyl)-9H-pyrido[2,3-b]indole-7-carboxamide] it is at least 0.011 µM; for `CCN1CCC(NC(=O)c2cc(-c3cccc(S(=O)(=O)CC)c3)c3c([nH]c4ncc(C)cc43)c2C)CC1` [Compound 105, N-(1-ethylpiperidin-4-yl)-5-(3-(ethylsulfonyl)phenyl)-3,8-dimethyl-9H-pyrido[2,3-b]indole-7-carboxamide] it is at least 0.011 µM.

In the case of `Cc1cnc2[nH]c3c(C)c(C(=O)NCCN(C)C)cc(-c4cccc(NC(=O)C5CC5)c4)c3c2c1` [Compound 112, 5-(3-(cyclopropanecarboxamido)phenyl)-N-(2-(dimethylamino)ethyl)-3,8-dimethyl-9H-pyrido[2,3-b]indole-7-carboxamide], the IC50 is at least 0.011 µM. `CCS(=O)(=O)c1cccc(-c2cc(C(=O)NCCN(C)C)c(C)c3[nH]c4ncc(C)cc4c23)c1` [Compound 113]: the IC50 was 0.006 to 0.01 µM.

Regarding `CCS(=O)(=O)c1cccc(-c2cc(C(=O)NCC3CCN(C)CC3)c(C)c3[nH]c4ncc(C)cc4c23)c1` [Compound 114, 5-(3-(ethylsulfonyl)phenyl)-3,8-dimethyl-N-((1-methylpiperidin-4-yl)methyl)-9H-pyrido[2,3-b]indole-7-carboxamide], the IC50 is at least 0.011 µM.

`CCS(=O)(=O)c1cccc(-c2cc(C(=O)N[C@H]3CCCN(C)C3)c(C)c3[nH]c4ncc(C)cc4c23)c1` [Compound 117, (S)-5-(3-(ethylsulfonyl)phenyl)-3,8-dimethyl-N-(1-methylpiperidin-3-yl)-9H-pyrido[2,3-b]indole-7-carboxamide]: the IC50 was at least 0.011 µM. The figure for `Cc1cnc2[nH]c3c(C)c(C(=O)NC4CCN(C)CC4)cc(-c4cccc(NC(=O)C5CC5)c4)c3c2c1` [Compound 120, 5-(3-(cyclopropanecarboxamido)phenyl)-3,8-dimethyl-N-(1-methyl-piperidin-4-yl)-9H-pyrido[2,3-b]indole-7-carboxamide] is 0.006 to 0.01 µM; for `CCS(=O)(=O)c1cccc(-c2cc(C(=O)NCCN(C)C)cc3[nH]c4ncc(C)cc4c23)c1` [Compound 142, 5-(3-Ethanesulfonyl-phenyl)-3-methyl-9H-pyrido[2,3-b]indole-7-carboxylic acid (2-dimethylamino-ethyl)-amide] it is 0.006 to 0.01 µM; for `CCNS(=O)(=O)c1cccc(-c2cc(C(=O)NC3CCN(C)CC3)c(C)c3[nH]c4ncc(C)cc4c23)c1` [Compound 153] it is at least 0.011 µM. The figure for `Cc1cnc2[nH]c3c(C)c(C(=O)NC4CCN(C)CC4)cc(-c4cccc(S(=O)(=O)C5CC5)c4)c3c2c1` [Compound 154, 5-(3-(cyclopropylsulfonyl)phenyl)-3,8-dimethyl-N-(1-methylpiperidin-4-yl)-9H-pyrido[2,3-b]indole-7-carboxamide] is 0.006 to 0.01 µM. `COc1ccc(-c2cccc(NC(=O)C3CC3)c2)c2c1[nH]c1ncc(C)cc12` [Compound 163, N-(3-(8-methoxy-3-methyl-9H-pyrido[2,3-b]indol-5-yl)phenyl)cyclopropanecarboxamide]: the IC50 was at least 0.011 µM. The figure for `CCOc1ccc(-c2cccc(S(=O)(=O)CC)c2)c2c1[nH]c1ncc(C)cc12` [Compound 171, 8-ethoxy-5-(3-(ethylsulfonyl)phenyl)-3-methyl-9H-pyrido[2,3-b]indole] is 0.006 to 0.01 µM.

With `CCS(=O)(=O)c1cccc(-c2ccc(OCC(F)(F)F)c3[nH]c4ncc(C)cc4c23)c1` [Compound 173, 5-(3-(ethylsulfonyl)phenyl)-3-methyl-8-(2,2,2-trifluoroethoxy)-9H-pyrido[2,3-b]indole], the IC50 was at least 0.011 µM. The figure for `CCS(=O)(=O)c1cccc(-c2ccc(OCC3CCN(C)CC3)c3[nH]c4ncc(C)cc4c23)c1` [Compound 177, 5-(3-(ethylsulfonyl)phenyl)-3-methyl-8-((1-methylpiperidin-4-yl)methoxy)-9H-pyrido[2,3-b]indole] is 0.006 to 0.01 µM. The figure for `Cc1cnc2[nH]c3c(OCC4CCN(C)CC4)ccc(-c4cccc(C(=O)NC5CC5)c4)c3c2c1` [Compound 178, N-cyclopropyl-3-(3-methyl-8-((1-methylpiperidin-4-yl)methoxy)-9H-pyrido[2,3-b]indol-5-yl)benzamide] is at least 0.011 µM; for `Cc1cnc2[nH]c3c(OCC4CCN(C)CC4)ccc(-c4cccc(S(=O)(=O)C5CC5)c4)c3c2c1` [Compound 179, 5-(3-(cyclopropylsulfonyl)phenyl)-3-methyl-8-((1-methylpiperidin-4-yl)methoxy)-9H-pyrido[2,3-b]indole] it is 0.006 to 0.01 µM; for `Cc1cnc2[nH]c3c(OCC4CCN(C)CC4)ccc(-c4cccc(NC(=O)C5CC5)c4)c3c2c1` [Compound 182, N-(3-(3-methyl-8-((1-methylpiperidin-4-yl)methoxy)-9H-pyrido[2,3-b]indol-5-yl)phenyl)cyclopropanecarboxamide] it is 0.006 to 0.01 µM. The figure for `Cc1cnc2[nH]c3c(OCCCN(C)C)ccc(-c4cccc(NC(=O)C5CC5)c4)c3c2c1` [Compound 195, N-(3-(8-(3-(dimethylamino)propoxy)-3-methyl-9H-pyrido[2,3-b]indol-5-yl)phenyl)cyclopropanecarboxamide] is at least 0.011 µM; for `CCS(=O)(=O)c1cccc(-c2ccc(OC[C@H](O)CN(C)C)c3[nH]c4ncc(C)cc4c23)c1` [Compound 232, (R)-1-(dimethylamino)-3-(5-(3-(ethylsulfonyl)phenyl)-3-methyl-9H-pyrido[2,3-b]indol-8-yloxy)propan-2-ol] it is 0.006 to 0.01 µM; for `CCN(CCCOc1ccc(-c2cccc(S(=O)(=O)C3CC3)c2)c2c1[nH]c1ncc(C)cc12)CCOP(=O)(OC(C)(C)C)OC(C)(C)C` [Compound 271, di-tert-butyl-2-((3-(5-(3-(cyclopropylsulfonyl)phenyl)-3-methyl-9H-pyrido[2,3-b]indol-8-yloxy)propyl)(ethyl)amino)ethyl phosphate] it is at most 0.005 µM. On to `CCN(CCCOc1ccc(-c2cccc(S(=O)(=O)C3CC3)c2)c2c1[nH]c1ncc(C)cc12)CCOP(=O)(O)O` [Compound 272, 2-((3-(5-(3-(cyclopropylsulfonyl)phenyl)-3-methyl-9H-pyrido[2,3-b]indol-8-yloxy)propyl)(ethyl)amino)ethyl dihydrogen phosphate], for which the IC50 lay within 0.006 to 0.01 µM. With `CN1CCC(COc2ccc(-c3cccc(C(=O)NC4CC4)c3)c3c2[nH]c2ncc(Cl)cc23)CC1` [Compound 285, 3-(3-chloro-8-((1-methylpiperidin-4-yl)methoxy)-9H-pyrido[2,3-b]indol-5-yl)-N-cyclopropylbenzamide], the IC50 was 0.006 to 0.01 µM. The figure for `CN1CCC(COc2ccc(-c3cccc(S(=O)(=O)C4CC4)c3)c3c2[nH]c2ncc(Cl)cc23)CC1` [Compound 286, 3-chloro-5-(3-(cyclopropylsulfonyl)phenyl)-8-((1-methylpiperidin-4-yl)methoxy)-9H-pyrido[2,3-b]indole] is 0.006 to 0.01 µM.

(Values after patent publication US20100120717A1, “KINASE INHIBITORS” (priority 2006, published 2010).)
